In patent US20070219214A1, “Dual NK2/NK3-antagonists, pharmaceutical compositions comprising them, and processes for their preparation” (Solvay pharmaceuticals GmbH, priority 2006, published 2007):
Read-outs that look alike come from different tables or passages of the source.

Key:
NK1-receptor = target: T1, NK1-receptor (Cavia porcellus, UniProt P30547); test: NK1-receptor-antagonistic effectiveness in vivo, NKA-induced early hypotension in anaesthetised guinea pigs; settings: guinea pig; for ED50 iv after 1 min (cumulative), NK1 (early hypotension) / ED50 AUC1-180 min oral, NK1 (early hypotension): NKA 200 pmol/animal i.v.; for ED50 iv after 1 min (cumulative), NK1 (early hypotension): intravenous administration
T1 construct: from tissue; host or cells: whole animal (Pirbright-White guinea pigs), in vivo
Source text: (§1) 10. Determination of the NK1- and NK2-Receptor-Antagonistic Effectiveness of the Test Substances In Vivo
(§2) The NK1- and NK2-antagonistic activities of the test substances were investigated in anaesthetised guinea pigs in each case after intravenous (=i.v.) and oral (=p.o.) administration in vivo. With the present test model it is possible to detect both NK2-antagonistic effects in three different organ systems (respiratory tracts, colon and circulation) and NK1-antagonistic effects (rapid drop in blood pressure) in an animal simultaneously.
(§3) Pirbright-White guinea pigs of a body weight of 500-700 g were anaesthetised with ketamine/xylazine (67/13 mg/kg subcutaneously, initial dose, further doses administered as required). The animals were provided with an intravenous catheter in order to administer the substance and an intra-arterial catheter to measure the blood pressure. The animals were artificially ventilated via a tracheal cannula and the respiratory pressure was recorded by means of a pressure transducer. A balloon was introduced into the distal colon of the animals for manometric recording of colon motility by means of a pressure transducer. Blood pressure, heart rate, respiratory pressure and colonic pressure were measured continuously for each animal and plotted on a recorder and by means of a digital data-processing system. […] The second phase of delayed hypotension (=phase of maximum hypotension after 2-5 min.) on the other hand is mediated via NK2-receptors, since they can be blocked by specific NK2-receptor antagonists.
(§4) These ED50 values obtained from cumulative dose effect curves are plotted in Table 13.

NK2-receptor = target: T2, NK2-receptor (Cavia porcellus, UniProt Q64077); test: NK2-receptor-antagonistic effectiveness in vivo, NKA-induced late hypotension, bronchoconstriction and colonic pressure in anaesthetised guinea pigs; settings: guinea pig; for oral activity on the NK2, in words / ED50 AUC1-180 min oral, NK2 (bronchoconstriction) / ED50 AUC1-180 min oral, NK2 (colonic motility) / ED50 AUC1-180 min oral, NK2 (late hypotension): oral administration; for ED50 iv after 1 min (cumulative), NK2 (bronchoconstriction) / ED50 iv after 1 min (cumulative), NK2 (colonic motility) / ED50 iv after 1 min (cumulative), NK2 (late hypotension) / ED50 AUC1-180 min oral, NK2 (bronchoconstriction) / ED50 AUC1-180 min oral, NK2 (colonic motility) / ED50 AUC1-180 min oral, NK2 (late hypotension): NKA 200 pmol/animal i.v.; for ED50 iv after 1 min (cumulative), NK2 (bronchoconstriction) / ED50 iv after 1 min (cumulative), NK2 (colonic motility) / ED50 iv after 1 min (cumulative), NK2 (late hypotension): intravenous administration
T2 construct: from tissue; host or cells: whole animal (Pirbright-White guinea pigs), in vivo
T2 sequence (Q64077 1-402): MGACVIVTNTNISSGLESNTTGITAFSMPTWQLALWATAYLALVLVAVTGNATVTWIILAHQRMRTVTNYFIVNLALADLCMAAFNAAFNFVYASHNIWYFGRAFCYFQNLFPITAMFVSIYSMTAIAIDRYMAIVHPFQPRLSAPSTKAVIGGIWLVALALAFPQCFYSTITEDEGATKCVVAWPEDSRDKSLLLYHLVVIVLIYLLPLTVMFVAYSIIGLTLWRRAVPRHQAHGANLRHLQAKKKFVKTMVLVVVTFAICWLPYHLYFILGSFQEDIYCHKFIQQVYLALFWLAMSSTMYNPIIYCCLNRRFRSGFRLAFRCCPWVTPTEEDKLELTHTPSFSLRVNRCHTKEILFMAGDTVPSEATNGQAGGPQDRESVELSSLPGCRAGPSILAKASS
Source text: as §1, §2, §3, §4

human NK2-receptor = target: T3, human NK2-receptor (Homo sapiens, UniProt P21452); test: Functional cellular test, Ca2+ measurements using FLIPR for NK2 activity; settings: for pA2 data for NK2: CHO cells, human NK2, FLIPR Ca2+, agonist NKA 10^-7 M;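 as to all read-outs here: CHO cells stably expressing the human receptor, loaded with a calcium dye, antagonist inhibition of ligand-evoked intracellular calcium rise read as peak fluorescence change on FLIPR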
T3 sequence (P21452 1-398): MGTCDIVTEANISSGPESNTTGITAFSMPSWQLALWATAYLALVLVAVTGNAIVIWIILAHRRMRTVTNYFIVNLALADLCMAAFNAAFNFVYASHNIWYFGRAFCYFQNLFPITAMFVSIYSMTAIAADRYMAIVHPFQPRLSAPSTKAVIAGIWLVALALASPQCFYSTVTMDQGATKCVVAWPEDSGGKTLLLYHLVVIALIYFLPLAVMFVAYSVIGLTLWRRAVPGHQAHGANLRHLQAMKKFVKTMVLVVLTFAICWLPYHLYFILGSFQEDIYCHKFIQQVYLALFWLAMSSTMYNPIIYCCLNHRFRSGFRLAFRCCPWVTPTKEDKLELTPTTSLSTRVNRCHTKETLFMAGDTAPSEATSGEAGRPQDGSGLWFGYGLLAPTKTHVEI

human NK3 receptor = target: T4, human NK3 receptor (Homo sapiens, UniProt P29371); test: Binding potency of the test substances to NK3-receptors in vitro ([3H]-SR 142801 displacement); set-up: expressed in transfected cells; host or cells: CHO cells (membrane preparation); settings: human NK3-receptor in CHO cell membranes, [3H]-SR 142801 (osanetant), average of at least three measurements; for Ki: read-out: pKi, binding potency to NK3-receptors (converted)
T4 sequence (P29371 1-465): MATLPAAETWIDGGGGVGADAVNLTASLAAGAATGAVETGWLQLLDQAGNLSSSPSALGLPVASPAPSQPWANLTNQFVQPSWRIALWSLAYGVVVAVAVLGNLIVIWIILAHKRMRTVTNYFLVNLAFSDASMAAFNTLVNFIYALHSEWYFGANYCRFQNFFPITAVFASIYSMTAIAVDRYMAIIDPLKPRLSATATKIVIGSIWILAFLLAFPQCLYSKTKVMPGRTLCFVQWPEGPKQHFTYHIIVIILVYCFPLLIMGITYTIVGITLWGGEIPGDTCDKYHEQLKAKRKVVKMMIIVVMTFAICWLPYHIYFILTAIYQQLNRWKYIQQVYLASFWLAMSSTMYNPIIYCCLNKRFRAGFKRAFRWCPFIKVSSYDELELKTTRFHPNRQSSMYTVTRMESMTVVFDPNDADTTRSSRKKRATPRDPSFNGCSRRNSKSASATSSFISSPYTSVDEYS
Procedure, shortened: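 [3H]-osanetant displacement on membranes from CHO cells stably expressing the human receptor, with bound ligand separated by filtration and counted by scintillation. Nonspecific binding defined with 1 μmol/l unlabeled osanetant. IC50 converted to Ki by Cheng-Prusoff and reported as pKi, averaged over measurements.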

[1] = iv, read-out: ED50 iv after 1 min (cumulative), NK1 (early hypotension)
[2] = iv, read-out: ED50 iv after 1 min (cumulative), NK2 (bronchoconstriction)
[3] = iv, read-out: ED50 iv after 1 min (cumulative), NK2 (colonic motility)
[4] = iv, read-out: ED50 iv after 1 min (cumulative), NK2 (late hypotension)

T1 sequence (P30547 whole entry): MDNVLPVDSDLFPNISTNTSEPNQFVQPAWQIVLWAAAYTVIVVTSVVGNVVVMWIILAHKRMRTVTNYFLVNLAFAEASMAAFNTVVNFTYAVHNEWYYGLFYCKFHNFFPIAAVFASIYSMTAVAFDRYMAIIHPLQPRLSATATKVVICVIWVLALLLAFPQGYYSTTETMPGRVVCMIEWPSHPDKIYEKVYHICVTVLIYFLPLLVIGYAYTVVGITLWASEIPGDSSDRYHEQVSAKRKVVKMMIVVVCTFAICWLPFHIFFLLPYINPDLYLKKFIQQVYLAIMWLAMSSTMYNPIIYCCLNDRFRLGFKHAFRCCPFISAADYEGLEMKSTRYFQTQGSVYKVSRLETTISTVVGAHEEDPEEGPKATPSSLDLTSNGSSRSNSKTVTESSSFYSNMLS

ED50 (NK1-receptor; [1]) | ED50 (NK2-receptor; [2]) | ED50 (NK2-receptor; [3]) | ED50 (NK2-receptor; [4]) | oral activity on the NK2, in words (NK2-receptor) | Kb (human NK2-receptor) | Ki (human NK3 receptor) | ED50 iv after 1 min (cumulative), NK1 (early hypotension) (NK1-receptor) | ED50 iv after 1 min (cumulative), NK2 (bronchoconstriction) (NK2-receptor) | ED50 iv after 1 min (cumulative), NK2 (colonic motility) (NK2-receptor) | ED50 iv after 1 min (cumulative), NK2 (late hypotension) (NK2-receptor) | pA2 data for NK2 (human NK2-receptor) | pKi, binding potency to NK3-receptors (human NK3 receptor) | SMILES | also measured
> 0.46 µmol/kg | 0.033 µmol/kg | < 0.003 µmol/kg | 0.044 µmol/kg | active orally on the NK2 | 0.2 nM | 2.51 nM | – | – | – | – | – | – | CN(C)C(=O)C1(N2CCCCC2)CCN(CC[C@H](CN(C)C(=O)c2ccccc2)c2ccc(Cl)c(Cl)c2)CC1 [compound 1] | ED50 (NK1-receptor; read-out: ED50 AUC1-180 min oral, NK1 (early hypotension)): > 3.2 µmol/kg; ED50 (NK2-receptor; read-out: ED50 AUC1-180 min oral, NK2 (bronchoconstriction)): 0.457 µmol/kg; ED50 (NK2-receptor; read-out: ED50 AUC1-180 min oral, NK2 (colonic motility)): 1.08 µmol/kg; ED50 (NK2-receptor; read-out: ED50 AUC1-180 min oral, NK2 (late hypotension)): 2.24 µmol/kg
> 1.46 µmol/kg | 0.093 µmol/kg | 0.028 µmol/kg | 0.209 µmol/kg | – | 0.501 nM | 31.6 nM | – | – | – | – | – | – | CN(C)C(=O)C1(N2CCCCC2)CCN(CCC(CN(C)C(=O)c2cccnc2)c2ccc(Cl)c(Cl)c2)CC1 (centres unmarked) [compound 19] | –
– | – | – | – | – | – | – | >1.462 µmol/kg | 0.26 µmol/kg | 0.245 µmol/kg | 0.247 µmol/kg | 8.2 | – | CN(C)C(=O)C1(N2CCCCC2)CCN(CC[C@H](CN(C)C(=O)c2ccc(F)c(F)c2)c2ccc(Cl)c(Cl)c2)CC1 [compound 14] | –
– | – | – | – | – | – | – | – | – | – | – | 8.3 | 7.4 | CN(C)C(=O)C1(N2CCCCC2)CCN(CC[C@H](CN(C)C(=O)c2ccc(F)cc2F)c2ccc(Cl)c(Cl)c2)CC1 [compound 13] | –
> 1.46 µmol/kg | 0.06 µmol/kg | 0.096 µmol/kg | 0.04 µmol/kg | – | 1.58 nM | 2 nM | – | – | – | – | – | – | CN(C)C(=O)C1(N2CCCCC2)CCN(CC[C@H](CN(C)C(=O)c2ccc(O)cc2)c2ccc(Cl)c(Cl)c2)CC1 [compound 6, 1′-{(3S)-3-(3,4-dichlorophenyl)-4-[(4-hydroxybenzoyl)-(methyl)amino]butyl}-N,N-dimethyl-1,4′-bipiperidine-4′-carboxamide] | –

The remaining lines, values behind:

SMILES | ED50 (NK1-receptor; [1]) | ED50 (NK2-receptor; [2]) | ED50 (NK2-receptor; [3]) | ED50 (NK2-receptor; [4]) | oral activity on the NK2, in words (NK2-receptor) | Kb (human NK2-receptor) | Ki (human NK3 receptor) | ED50 iv after 1 min (cumulative), NK1 (early hypotension) (NK1-receptor) | ED50 iv after 1 min (cumulative), NK2 (bronchoconstriction) (NK2-receptor) | ED50 iv after 1 min (cumulative), NK2 (colonic motility) (NK2-receptor) | ED50 iv after 1 min (cumulative), NK2 (late hypotension) (NK2-receptor) | pA2 data for NK2 (human NK2-receptor) | pKi, binding potency to NK3-receptors (human NK3 receptor) | also measured
CN(C)C(=O)C1(N2CCCCC2)CCN(CC[C@H](CN(C)C(=O)c2cc(F)ccc2F)c2ccc(Cl)c(Cl)c2)CC1 [compound 15] | – | – | – | – | – | – | – | >1.462 µmol/kg | 0.075 µmol/kg | 0.066 µmol/kg | 0.1 µmol/kg | 8.3 | – | –
CN(C)C(=O)C1(N2CCCCC2)CCN(CC[C@H](CN(C)C(=O)c2ccc(F)cc2)c2ccc(Cl)c(Cl)c2)CC1 [compound 4] | – | – | – | – | active orally on the NK2 | – | – | >1.462 µmol/kg | 0.058 µmol/kg | 0.053 µmol/kg | 0.04 µmol/kg | 8.6 | 8.2 | ED50 AUC1-180 min oral, NK1 (early hypotension) (NK1-receptor; oral administration): >10 µmol/kg; ED50 AUC1-180 min oral, NK2 (bronchoconstriction) (NK2-receptor): <3.2 µmol/kg; ED50 AUC1-180 min oral, NK2 (colonic motility) (NK2-receptor): <3.2 µmol/kg; ED50 AUC1-180 min oral, NK2 (late hypotension) (NK2-receptor): 12 µmol/kg
CN(C)C(=O)C1(N2CCCCC2)CCN(CC[C@H](CN(C)C(=O)c2cc(C#N)c3ccccc3c2)c2ccc(Cl)c(Cl)c2)CC1 [compound 11] | – | – | – | – | active orally on the NK2 | – | – | 0.433 µmol/kg | 0.052 µmol/kg | 0.085 µmol/kg | 0.212 µmol/kg | 8.4 | 7.9 | ED50 AUC1-180 min oral, NK1 (early hypotension) (NK1-receptor; oral administration): 23.027 µmol/kg; NK-1-receptor-antagonistic activity on the early hypotension, in words (NK1-receptor; cumulative administration i.v., 1 min after administration): marked NK-1-receptor-antagonistic activity; oral activity as NK1 receptor antagonist, in words (NK1-receptor; oral administration): active as NK1 receptor antagonists; ED50 AUC1-180 min oral, NK2 (bronchoconstriction) (NK2-receptor): 2.213 µmol/kg; ED50 AUC1-180 min oral, NK2 (colonic motility) (NK2-receptor): 11.228 µmol/kg; ED50 AUC1-180 min oral, NK2 (late hypotension) (NK2-receptor): 2.509 µmol/kg
CN(C)C(=O)C1(N2CCCCC2)CCN(CC[C@H](CN(C)C(=O)C2CCCCC2)c2ccc(Cl)c(Cl)c2)CC1 [compound 3] | – | – | – | – | – | – | – | >1.462 µmol/kg | 0.221 µmol/kg | 0.07 µmol/kg | 0.397 µmol/kg | 8.7 | 8.2 | –
CN(C)C(=O)C1(N2CCCCC2)CCN(CCC(CN(C)C(=O)c2ccc(Cl)nc2)c2ccc(Cl)c(Cl)c2)CC1 (centres unmarked) [compound 18] | > 1.46 µmol/kg | 0.18 µmol/kg | 0.068 µmol/kg | 0.181 µmol/kg | – | 3.16 nM | 5.01 nM | – | – | – | – | – | – | –
